According to PubChem BioAssay AID192 (DTP/NCI, 2004):
Where “and” joins values, the source holds several entries; their conditions need not be identical. Identical values can stand only once. Toxic doses and inconclusive results are not listed. The calls were made as follows: active = survival T/C of 150% or more; inactive = T/C below 125% in these data.

System: BDF1 mice, B16 melanoma ip, median survival T/C
Assay: NCI In Vivo Anticancer Drug Screen. Data for tumor model B16 Melanoma (intraperitoneal) in B6D2F1 (BDF1) mice
Conditions: endpoint: median survival time, higher = longer survival
Procedure, shortened: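 Each result divides a survival or tumor-size measurement in the compound-treated group by the same measurement in the vehicle group.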

[1] = dose: 50.0 mg/kg/injection, schedule: Q01DX009 (ip), vehicle: Klucel (hydroxypropylcellulose) (HPC)
[2] = dose: 100.0 mg/kg/injection, schedule: Q01DX009 (ip), vehicle: Klucel (hydroxypropylcellulose) (HPC)
[3] = dose: 200.0 mg/kg/injection, schedule: Q01DX009 (ip), vehicle: Klucel (hydroxypropylcellulose) (HPC)
[4] = dose: 400.0 mg/kg/injection, schedule: Q01DX009 (ip), vehicle: Klucel (hydroxypropylcellulose) (HPC)
[5] = dose: 6.25 mg/kg/injection, schedule: Q01DX009 (ip), vehicle: saline with Tween-80
[6] = dose: 12.5 mg/kg/injection, schedule: Q01DX009 (ip), vehicle: saline with Tween-80
[7] = dose: 100.0 mg/kg/injection, schedule: Q01DX009 (ip), vehicle: saline with Tween-80
[8] = dose: 200.0 mg/kg/injection, schedule: Q01DX009 (ip), vehicle: saline with Tween-80
[9] = dose: 25.0 mg/kg/injection, schedule: Q04DX003 (ip), vehicle: saline
[10] = dose: 1.25 mg/kg/injection, schedule: Q01DX009 (ip), vehicle: saline
[11] = dose: 2.5 mg/kg/injection, schedule: Q01DX009 (ip), vehicle: saline
[12] = dose: 5.0 mg/kg/injection, schedule: Q01DX009 (ip), vehicle: saline
[13] = dose: 25.0 mg/kg/injection, schedule: Q01DX009 (ip), vehicle: saline with Tween-80
[14] = dose: 50.0 mg/kg/injection, schedule: Q01DX009 (ip), vehicle: saline with Tween-80
[15] = dose: 5.0 mg/kg/injection, schedule: Q01DX009 (ip), vehicle: saline with Tween-80
[16] = dose: 25.0 mg/kg/injection, schedule: Q01DX009 (ip), vehicle: Klucel (hydroxypropylcellulose) (HPC)

Measured: T/C

C/C(=C\C(=O)Nc1ncn[nH]1)Nc1ncn[nH]1
inactive: [1] 106 % of control | [2] 102 % of control | [3] 90 % of control | [4] 101 % of control

C[CH2][Sn]1([CH2]C)[O]OC(c2ccccc2)[O]1 (stereo unspecified)
inactive: dose: 0.78 mg/kg/injection, schedule: Q01DX009 (ip), vehicle: saline with Tween-80 106 % of control | dose: 1.56 mg/kg/injection, schedule: Q01DX009 (ip), vehicle: saline with Tween-80 105 % of control and 111 % of control | dose: 3.12 mg/kg/injection, schedule: Q01DX009 (ip), vehicle: saline with Tween-80 109 % of control and 112 % of control | [5] 113 % of control and 116 % of control | [6] 101 % of control and 117 % of control

Cc1cccc(NC(=O)Nc2ccccc2)c1C
inactive: [2] 100 % of control

Cc1cc(Cl)ccc1NS(=O)(=O)c1cccc([N+](=O)[O-])c1
inactive: [7] 116 % of control | [8] 121 % of control | dose: 400.0 mg/kg/injection, schedule: Q01DX009 (ip), vehicle: saline with Tween-80 107 % of control

O=C(O)COc1ccc(OCC(=O)O)cc1
inactive: dose: 0.75 mg/kg/injection, schedule: Q01DX009 (ip), vehicle: Klucel (hydroxypropylcellulose) (HPC) 89 % of control | dose: 1.5 mg/kg/injection, schedule: Q01DX009 (ip), vehicle: Klucel (hydroxypropylcellulose) (HPC) 89 % of control

C[C@]12CCC(=O)C=C1[C@@H](F)C[C@@H]1[C@@H]2[C@@H](O)C[C@@]2(C)[C@H]1CC[C@]2(O)C(=O)CO
inactive: dose: 25.0 mg/kg/injection, schedule: Q01DX009 (sc), vehicle: steriod suspending solution 95 % of control | dose: 50.0 mg/kg/injection, schedule: Q01DX009 (sc), vehicle: steriod suspending solution 97 % of control | dose: 100.0 mg/kg/injection, schedule: Q01DX009 (sc), vehicle: steriod suspending solution 101 % of control

C=CCOCC(O)CN(C)C1CCCCC1 (stereo unspecified)
inactive: dose: 12.5 mg/kg/injection, schedule: Q04DX003 (ip), vehicle: saline 121 % of control | [9] 100 % of control | dose: 50.0 mg/kg/injection, schedule: Q04DX003 (ip), vehicle: saline 100 % of control and 104 % of control

CCN(C)c1cc2c3c(c1)CCCN3CCC2
inactive: dose: 0.63 mg/kg/injection, schedule: Q01DX009 (ip), vehicle: saline 111 % of control | [10] 95 % of control | [11] 101 % of control | [12] 93 % of control

Nc1ccc(S(=O)(=O)N/N=C/c2ccccc2Cl)cc1
inactive: [6] 107 % of control | [13] 102 % of control | [14] 107 % of control

COC(=O)C[C@](O)(CCC(C)(C)O)C(=O)O[C@@H]1C(OC)=C[C@]23CCCN2CCc2cc4c(cc2[C@H]13)OCO4
inactive: dose: 2.0 mg/kg/injection, schedule: Q01DX009 (ip), vehicle: saline 102 % of control | dose: 32.0 micrograms/kg/injection, schedule: Q01DX009 (ip), vehicle: saline 104 % of control | dose: 63.0 micrograms/kg/injection, schedule: Q01DX009 (ip), vehicle: saline 109 % of control | dose: 125.0 micrograms/kg/injection, schedule: Q01DX009 (ip), vehicle: saline 113 % of control
active: dose: 0.25 mg/kg/injection, schedule: Q01DX009 (ip), vehicle: saline 152 % of control | dose: 1.0 mg/kg/injection, schedule: Q01DX009 (ip), vehicle: saline 150 % of control

NC(=O)Cn1cnc2c(=S)nc[nH]c21
inactive: dose: 12.5 mg/kg/injection, schedule: Q04DX003 (ip), vehicle: saline with Tween-80 95 % of control | dose: 25.0 mg/kg/injection, schedule: Q04DX003 (ip), vehicle: saline with Tween-80 100 % of control

CN(C)N=C1CCCC1
inactive: dose: 16.5 mg/kg/injection, schedule: Q04DX003 (ip), vehicle: saline 107 % of control | [9] 115 % of control | dose: 37.5 mg/kg/injection, schedule: Q04DX003 (ip), vehicle: saline 112 % of control

O=C1[O][Hg][c]2cccc3cccc1c23
inactive: dose: 1.65 mg/kg/injection, schedule: Q04DX003 (ip), vehicle: saline with Tween-80 106 % of control | dose: 2.5 mg/kg/injection, schedule: Q01DX009 (ip), vehicle: saline with Tween-80 88 % of control | dose: 2.5 mg/kg/injection, schedule: Q04DX003 (ip), vehicle: saline with Tween-80 100 % of control | [15] 86 % of control | dose: 10.0 mg/kg/injection, schedule: Q04DX003 (ip), vehicle: saline with Tween-80 123 % of control

O=NN(CCCl)C(=O)NC1OC(CO)C(O)C(O)C1O (stereo unspecified)
active: [10] 178 % of control | [11] 188 % of control | [12] 193 % of control
inactive: dose: 0.16 mg/kg/injection, schedule: Q01DX009 (ip), vehicle: saline 107 % of control | dose: 0.31 mg/kg/injection, schedule: Q01DX009 (ip), vehicle: saline 111 % of control and 116 % of control | dose: 0.62 mg/kg/injection, schedule: Q01DX009 (ip), vehicle: saline 108 % of control

CC(C)(C)CC(C)(C)c1ccc(O)c(O)c1
inactive: [5] 98 % of control | [6] 90 % of control | [13] 88 % of control and 93 % of control

CCN(CC)CCOc1ccc(NC2=C(Cl)C(=O)C(Nc3ccc(OCCN(CC)CC)cc3)=C(Cl)C2=O)cc1
inactive: dose: 6.25 mg/kg/injection, schedule: Q01DX009 (ip), vehicle: saline + alcohol 95 % of control | dose: 12.5 mg/kg/injection, schedule: Q01DX009 (ip), vehicle: saline + alcohol 98 % of control | dose: 25.0 mg/kg/injection, schedule: Q01DX009 (ip), vehicle: saline + alcohol 91 % of control

O=[N+]([O-])c1cc(C(F)(F)F)ccc1F
inactive: dose: 12.5 mg/kg/injection, schedule: Q01DX009 (ip), vehicle: Klucel (hydroxypropylcellulose) (HPC) 101 % of control | [16] 109 % of control | [1] 109 % of control | [2] 108 % of control

C1CCN(CN2CCCCC2)CC1
inactive: dose: 12.5 mg/kg/injection, schedule: Q01DX009 (ip), vehicle: saline 97 % of control | dose: 25.0 mg/kg/injection, schedule: Q01DX009 (ip), vehicle: saline 93 % of control

Cc1ccc(CNc2ccc(Cl)cc2)cc1
inactive: [1] 91 % of control | [2] 94 % of control

CCCCCCCCCCCCCCCCCCOCC(CO)OC (stereo unspecified)
inactive: [13] 102 % of control | [14] 100 % of control | [7] 98 % of control | [8] 92 % of control

CCCCCCOCCN1CCN(CCCN2c3ccccc3Sc3ccc(C(F)(F)F)cc32)CC1
inactive: dose: 0.5 mg/kg/injection, schedule: Q01DX009 (ip), vehicle: saline with Tween-80 112 % of control | dose: 1.0 mg/kg/injection, schedule: Q01DX009 (ip), vehicle: saline with Tween-80 109 % of control | dose: 2.0 mg/kg/injection, schedule: Q01DX009 (ip), vehicle: saline with Tween-80 109 % of control

O=C1C(Cl)=C(Cl)C(=O)c2ccccc21
inactive: [15] 87 % of control | dose: 10.0 mg/kg/injection, schedule: Q01DX009 (ip), vehicle: saline with Tween-80 87 % of control

Cc1ccc(C(=O)CCCCl)c(C)c1
inactive: [14] 100 % of control | [7] 101 % of control | [8] 108 % of control

C=Cc1c2[n-]c(c1C)/C=c1\[n-]/c(c(C)c1C=C)=C\c1[n-]c(c(CCC(=O)O)c1C)/C=c1\[n-]/c(c(C)c1CCC(=O)O)=C\2.[Co]
inactive: [16] 95 % of control | [1] 94 % of control | [2] 92 % of control | [3] 87 % of control | dose: 1:1.0 dilution, schedule: Q01DX009 (ip), vehicle: saline 90 % of control | dose: 1:2.0 dilution, schedule: Q01DX009 (ip), vehicle: saline 99 % of control | dose: 1:4.0 dilution, schedule: Q01DX009 (ip), vehicle: saline 105 % of control | dose: 1:8.0 dilution, schedule: Q01DX009 (ip), vehicle: saline 112 % of control

c1ccc2c(c1)Cc1cc3ccccc3nc1-2
inactive: dose: 100.0 mg/kg/injection, schedule: Q04DX003 (ip), vehicle: Klucel (hydroxypropylcellulose) (HPC) 102 % of control | dose: 200.0 mg/kg/injection, schedule: Q04DX003 (ip), vehicle: Klucel (hydroxypropylcellulose) (HPC) 114 % of control | dose: 400.0 mg/kg/injection, schedule: Q04DX003 (ip), vehicle: Klucel (hydroxypropylcellulose) (HPC) 98 % of control

O=C1NC(=O)/C(=C/c2ccccc2)N1
inactive: [2] 100 % of control | [3] 107 % of control

OCC1OC(n2cnc3c(NO)ncnc32)C(O)C1O (stereo unspecified)
inactive: [3] 109 % of control | [4] 111 % of control
